Test results as given in patent US5498609A, “Benzoazepinyl compounds as oxytocin and vasopressin antagonists” (Otsuka Pharmaceutical Company, Limited, priority 1992, dated 1996).
Counter-ions that a name gives are not always drawn.

How the values were obtained:
[1] = biological target: V1 receptor (Rattus norvegicus, UniProt P30560); experiment: biochemical; settings: rat liver plasma membrane, [3H]-Arg-vasopressin, 37° C., 10 minutes, pH 8.0; read-out: IC50 in V1 receptor binding assay
Protocol: Experiment 1: V1 receptor binding assay
Using rat liver plasma membrane preparations prepared according to Ichihara's method [cf: Akira Ichihara, J. Bio. Chem., 258, 9283 (1983)], the plasma membrane (50000 dpm, 2×10^-10 M) of [^3 H]-Arg-vasopressin and a test compound (60 μg, 10^-8 to 10^-4 M) are incubated at 37° C. for 10 minutes in 100 mM Tris-HCl buffer (pH: 8.0) (250 μl) containing 5 mM MgCl2, 1 mM EDTA and 0.1% BSA. After incubation, the mixture is filtered three times using the glass filter (GF/F) so as to separate the membrane preparation binding with vasopressin and then washed with the buffer (5 ml). This glass filter is taken out and mixed with liquid scintillation cocktail. The amount of [^3 H]-vasopressin binding with the membrane is measured by liquid scintillation counter and the rate of the inhibitory effect of the test compound is estimated according to the following equation. [formula] C1 : The amount of [^3 H]-vasopressin binding with the membrane in the presence of the test compound (known amount)
(§1) C0 : The amount of [^3 H]-vasopressin binding with the membrane in the absence of the test compound
(§2) B1 : The amount of [^3 H]-vasopressin binding with the membrane in the presence of the excess amount of vasopressin (10^-6 M)
(§3) The results are expressed as IC50 value, which is the concentration of the test compound required to achieve the inhibitory effect in the rate of 50%.

[2] = biological target: T1, V2 receptor (Rattus norvegicus, UniProt Q00788); experiment: biochemical; settings: rat kidney plasma membrane, [3H]-Arg-vasopressin, 4° C., pH 8.0, read-out: IC50 in V2 receptor binding assay
T1 construct: Using rat kidney plasma membrane preparations; from tissue; host or cells: rat kidney plasma membrane
T1 sequence (Q00788 whole entry): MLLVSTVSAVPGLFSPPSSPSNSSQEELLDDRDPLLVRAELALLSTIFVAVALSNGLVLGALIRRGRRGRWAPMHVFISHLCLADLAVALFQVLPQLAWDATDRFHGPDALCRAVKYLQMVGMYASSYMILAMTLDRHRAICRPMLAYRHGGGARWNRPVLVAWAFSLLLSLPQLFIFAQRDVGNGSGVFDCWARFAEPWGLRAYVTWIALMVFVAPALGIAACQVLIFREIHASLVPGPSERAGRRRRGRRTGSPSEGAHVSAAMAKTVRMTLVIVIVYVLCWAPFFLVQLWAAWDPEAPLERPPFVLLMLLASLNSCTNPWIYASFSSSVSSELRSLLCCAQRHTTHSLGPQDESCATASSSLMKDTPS
Protocol: Experiment 2: V2 receptor binding assay
Using rat kidney plasma membrane preparations prepared according to O. Hechter's method [cf: J. Bio. Chem., 253, 3211 (1978)], the plasma membrane (100000 dpm, 4×10^-10 M) of [^3 H]-Arg-vasopressin and a test compound (0.6 mg, 10^-10 to 10^-5 M) are incubated at 4° C. for 3 hours in 100 mM Tris-HCl buffer (pH: 8.0) (250 μl) containing 5 mM MgCl2, 1 mM EDTA and 0.1% BSA. After incubation, the mixture is filtered using the glass filter (GF/F) so as to separate the membrane preparation binding with vasopressin and then washed twice with the buffer (each 5 ml). This glass filter is taken out and mixed with liquid scintillation cocktail. The amount of [^3 H]-vasopressin binding with the membrane is measured by liquid scintillation counter and the rate of the inhibitory effect of the test compound is estimated according to the following equation. [formula] C1 : The amount of [^3 H]-vasopressin binding with the membrane in the presence of the test compound (known amount)
as §1, §2, §3

V1 receptor, sequence (P30560 whole entry): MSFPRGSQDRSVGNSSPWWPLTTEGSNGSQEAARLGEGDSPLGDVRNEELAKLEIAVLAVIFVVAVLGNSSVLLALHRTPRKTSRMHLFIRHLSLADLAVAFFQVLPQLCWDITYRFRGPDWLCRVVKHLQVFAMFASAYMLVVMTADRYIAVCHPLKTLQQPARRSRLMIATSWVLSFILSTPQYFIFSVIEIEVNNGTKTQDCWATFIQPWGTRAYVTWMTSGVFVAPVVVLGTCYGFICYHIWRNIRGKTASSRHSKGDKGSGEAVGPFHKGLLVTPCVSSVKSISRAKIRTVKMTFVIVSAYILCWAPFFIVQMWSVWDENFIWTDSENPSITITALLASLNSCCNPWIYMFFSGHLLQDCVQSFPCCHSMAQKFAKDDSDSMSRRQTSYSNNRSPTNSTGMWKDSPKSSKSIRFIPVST

Row | SMILES | IC50 [1] | IC50 [2]
1 | COc1ccccc1C(=O)Nc1ccc(C(=O)N2CCCC(O)c3cc(Cl)ccc32)cn1 (centres unmarked) [Compound of Ex. 28] | 77 nM | 170 nM
2 | O=C(Nc1ccc(C(=O)N2CCCC(O)c3cc(Cl)ccc32)cn1)C1CCCCC1 (centres unmarked) [Compound of Ex. 32] | 12 nM | 16 nM
3 | Cc1ccccc1C(=O)Nc1ccc(C(=O)N2CCCC(OCC(=O)N3CCN(C)CC3)c3cc(Cl)ccc32)cn1 (centres unmarked) [Compound of Ex. 35] | 20 nM | 7 nM
4 | Cc1ccccc1C(=O)Nc1ccc(C(=O)N2CCCC(CC(=O)N(C)C)c3cc(Cl)ccc32)cn1 (centres unmarked) [Compound of Ex. 41] | 22 nM | 4 nM
5 | Cc1ccccc1C(=O)Nc1ccc(C(=O)N2CCCC(CC(=O)N3CCN(C)CC3)c3cc(Cl)ccc32)cn1 (centres unmarked) [Compound of Ex. 42] | 30 nM | 3 nM
6 | Cc1ccccc1C(=O)Nc1ccc(C(=O)N2CCN(C)Cc3cc(Cl)ccc32)cn1 [Compound of Ex. 47] | 150 nM | 89 nM
7 | Cc1ccccc1C(=O)Nc1ccc(C(=O)N2CCCC(O)c3cc(Cl)ccc32)s1 (centres unmarked) [Compound of Ex. 48] | 67 nM | 300 nM
8 | Cc1ccccc1C(=O)Nc1cnc(C(=O)N2CCCC(O)c3cc(Cl)ccc32)s1 (centres unmarked) [Compound of Ex. 49] | 41 nM | 250 nM
9 | Cc1ccccc1C(=O)Nc1ccc(C(=O)N2CCCC(O)c3cc(Cl)ccc32)nc1 (centres unmarked) [Compound of Ex. 50] | 78 nM | 61 nM
10 | CN1CCCN(C(=O)c2ccc(NC(=O)c3ccccc3Cl)nc2)c2ccc(Cl)cc21 [Compound of Ex. 53] | 55 nM | 19 nM
11 | COC1CCCN(C(=O)c2ccc(NC(=O)c3ccccc3Br)nc2)c2ccc(Cl)cc21 (centres unmarked) [Compound of Ex. 73] | 12 nM | 1.9 nM
12 | O=C(Nc1ccc(C(=O)N2CCCC(NC3CC3)c3cc(Cl)ccc32)cn1)c1ccccc1Cl (centres unmarked) [Compound of Ex. 78] | 17 nM | 10 nM
13 | CNC1CCCN(C(=O)c2ccc(NC(=O)c3ccccc3C)nc2)c2ccc(Cl)cc21 (centres unmarked) [Compound of Ex. 79] | 41 nM | 3.7 nM
14 | CN(C)CCOc1ccccc1C(=O)Nc1ccc(C(=O)N2CCCCc3cc(Cl)ccc32)cn1 [Compound of Ex. 96, 7-chloro-1-{6-[2-(2-dimethylaminoethoxy)benzoyl-amino]nicotinoyl}-2,3,4,5-tetrahydro-1H-benzazepine dihydrochloride] | 43 nM | 300 nM
15 | CCN(CC)CCN(C)C(=O)CC1CCCN(C(=O)c2ccc(NC(=O)c3ccccc3C)nc2)c2ccc(Cl)cc21 (centres unmarked) [Compound of Ex. 105] | 9 nM | 3 nM
16 | O=C(Nc1ccc(C(=O)N2CCCC(CC(=O)N3CCNCC3)c3cc(Cl)ccc32)cn1)c1ccccc1Cl (centres unmarked) [Compound of Ex. 116, 7-chloro-5-(1-piperazinyl)carboxymethyl-1-[6-(2-chlorobenzoylamino)nicotinoyl]-2,3,4,5-tetrahydro-1H-benzazepine] | 12 nM | 3.1 nM
17 | O=C(Nc1ccc(C(=O)N2CCCC(CCn3ccnc3)c3cc(Cl)ccc32)cn1)c1ccccc1Cl (centres unmarked) [Compound of Ex. 129] | 31 nM | 4.8 nM
18 | Cc1ccccc1C(=O)Nc1ccc(C(=O)N2CCCC(CCNC(C)C)c3cc(Cl)ccc32)cn1 (centres unmarked) [Compound of Ex. 139] | 16 nM | 4.1 nM
19 | Cc1ccccc1C(=O)Nc1ccc(C(=O)N2CCCC(CCn3cncn3)c3cc(Cl)ccc32)cn1 (centres unmarked) [Compound of Ex. 140] | 31 nM | 5.6 nM
20 | CC(=O)NCCC1CCCN(C(=O)c2ccc(NC(=O)c3ccccc3C)nc2)c2ccc(Cl)cc21 (centres unmarked) [Compound of Ex. 143, 7-chloro-5-(2-acetylamino-ethyl)-1-[6-(2-methylbenzoylamino)nicotinoyl]-2,3,4,5-tetrahydro-1H-benzazepine] | 6.6 nM | 3.1 nM
21 | Cc1ccccc1C(=O)Nc1ccc(C(=O)N2CCC(O)Cc3cc(Cl)ccc32)cn1 (centres unmarked) [Compound of Ex. 148] | 27 nM | 17 nM
22 | O=C(O)COC1CCCN(C(=O)c2ccc(NC(=O)c3ccccc3Cl)nc2)c2ccc(Cl)cc21 (centres unmarked) [Compound of Ex. 169] | 117 nM | 19 nM
23 | NC(=O)COC1CCCN(C(=O)c2ccc(NC(=O)c3ccccc3Cl)nc2)c2ccc(Cl)cc21 (centres unmarked) [Compound of Ex. 171] | 7.1 nM | 3.1 nM
24 | Cc1ccccc1C(=O)Nc1ccc(C(=O)N2CCCC(OCCn3ccnc3)c3cc(Cl)ccc32)cn1 (centres unmarked) [Compound of Ex. 178] | 29 nM | 8 nM
25 | CC(=O)N1CCN(CCOC2CCCN(C(=O)c3ccc(NC(=O)c4ccccc4Cl)nc3)c3ccc(Cl)cc32)CC1 (centres unmarked) [Compound of Ex. 181] | 15 nM | 4.4 nM
26 | Cc1ccccc1C(=O)Nc1ccc(C(=O)N2CCCC(OCCN3CCOCC3)c3cc(Cl)ccc32)cn1 (centres unmarked) [Compound of Ex. 182] | 28 nM | 10 nM
27 | O=C(Nc1ccc(C(=O)N2CCCC(OCCNC3CCCC3)c3cc(Cl)ccc32)cn1)c1ccccc1Cl (centres unmarked) [Compound of Ex. 187] | 7.8 nM | 8 nM

The next lines start with the values.

Row | IC50 [1] | IC50 [2] | SMILES
28 | 14 nM | 4 nM | Cc1ccccc1C(=O)Nc1ccc(C(=O)N2CCCC(O)c3cc(Cl)ccc32)cn1 (centres unmarked) [Compound of Ex. 25]
29 | 78 nM | 21 nM | Cc1cccc(C(=O)Nc2ccc(C(=O)N3CCCC(O)c4cc(Cl)ccc43)cn2)c1 (centres unmarked) [Compound of Ex. 26]
30 | 24 nM | 11 nM | O=C(Nc1ccc(C(=O)N2CCCC(O)c3cc(Cl)ccc32)cn1)c1ccccc1[N+](=O)[O-] (centres unmarked) [Compound of Ex. 29]
31 | 57 nM | 120 nM | O=C(Nc1ccc(C(=O)N2CCCC(O)c3cc(Cl)ccc32)cn1)c1cccs1 (centres unmarked) [Compound of Ex. 31]
32 | 7 nM | 3 nM | Cc1ccccc1CC(=O)Nc1ccc(C(=O)N2CCCC(O)c3cc(Cl)ccc32)cn1 (centres unmarked) [Compound of Ex. 33]
33 | 66 nM | 16 nM | Cc1ccccc1C(=O)Nc1ccc(C(=O)N2CCCC(O)(CO)c3cc(Cl)ccc32)cn1 (centres unmarked) [Compound of Ex. 34]
34 | 43 nM | 3 nM | Cc1ccccc1C(=O)Nc1ccc(C(=O)N2CCCC(OCCO)c3cc(Cl)ccc32)cn1 (centres unmarked) [Compound of Ex. 36, 7-chloro-5-(2-hydroxyethoxy)-1-[6-(2-methylbenzoylamino)nicotinoyl]-2,3,4,5-tetrahydro-1H-benzazepine]
35 | 26 nM | 3 nM | CC(=O)NCCOC1CCCN(C(=O)c2ccc(NC(=O)c3ccccc3C)nc2)c2ccc(Cl)cc21 (centres unmarked) [Compound of Ex. 38, 7-chloro-5-(2-acetylaminoethoxy)-1-[6-(2-methylbenzoylamino)nicotinoyl]-2,3,4,5-tetrahydro-1H-benzazepine]
36 | 910 nM | 68 nM | Cc1ccccc1C(=O)Nc1ccc(C(=O)N2CCCC(CC(=O)O)c3cc(Cl)ccc32)cn1 (centres unmarked) [Compound of Ex. 39]
37 | 16 nM | 4.6 nM | CC(=O)N1CCN(CCC2CCCN(C(=O)c3ccc(NC(=O)c4ccccc4Cl)nc3)c3ccc(Cl)cc32)CC1 (centres unmarked) [Compound of Ex. 128]
38 | 24 nM | 5.3 nM | CN(C)C(=O)COC1CCCN(C(=O)c2ccc(NC(=O)c3ccccc3Cl)nc2)c2ccc(Cl)cc21 (centres unmarked) [Compound of Ex. 173]
39 | 8.4 nM | 2.7 nM | CCN(CC)CCN(C)C(=O)COC1CCCN(C(=O)c2ccc(NC(=O)c3ccccc3Cl)nc2)c2ccc(Cl)cc21 (centres unmarked) [Compound of Ex. 175]
40 | 34 nM | 12 nM | Cc1ccccc1C(=O)Nc1ccc(C(=O)N2CCCC(OC(=O)CN(C)C)c3cc(Cl)ccc32)cn1 (centres unmarked) [Compound of Ex. 189]
